Test results published in patent US6140341A, “Aminoalkyl and acylaminoalkyl ethers, process for their preparation, and their use as bradykinin receptor antagonists” (Hoechst Aktiengesellschaft, priority 1996, dated 2000).

Tests used:
bradykinin B2 receptor = molecular target: T1, bradykinin B2 receptor (Cavia porcellus, UniProt O70526); assay: Affinity for the bradykinin B2 receptor on membrane preparations from guinea pig ileum (3H-bradykinin competition); format: binding; conditions: 3H-bradykinin (0.25 to 0.3 nMol/l), guinea pig ileum membranes, pH 6.8, room temperature, 60 minutes
T1 construct: preparations of membranes from the guinea pig ileum; from tissue; host or cells: guinea pig ileum membranes
T1 sequence (O70526 1-372): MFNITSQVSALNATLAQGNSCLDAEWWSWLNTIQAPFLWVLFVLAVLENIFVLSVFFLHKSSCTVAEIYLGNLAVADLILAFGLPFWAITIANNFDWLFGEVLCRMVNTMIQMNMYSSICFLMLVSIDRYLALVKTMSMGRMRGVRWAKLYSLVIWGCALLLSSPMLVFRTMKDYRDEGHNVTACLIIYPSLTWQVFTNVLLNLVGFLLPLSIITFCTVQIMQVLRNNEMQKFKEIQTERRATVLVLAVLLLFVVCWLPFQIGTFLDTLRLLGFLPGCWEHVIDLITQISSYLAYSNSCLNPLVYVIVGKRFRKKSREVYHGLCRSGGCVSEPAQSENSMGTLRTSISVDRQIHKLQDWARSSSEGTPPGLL
Experimental: Determination of the affinity of the compounds of the formula (I) for the bradykinin B2 receptor took place on preparations of membranes from the guinea pig ileum (R. B. Innis et al., Proc. Natl. Acad. Sci. USA; […] (1981) 2630) by the following method:
1. Ligand: ^3 H-BRADYKININ (from NEN Du Pont)
25 mM TES (SIGMA, Order No.: T-4152)
1 mM 1,10-phenanthroline (SIGMA; Order No.: P-9375)
25 mM TES (SIGMA; Order No.: T-4152)
0.1% albumin, bovine (SIGMA; Order No.: A-7906)
140 μg/ml bacitracin (SIGMA; Order No.: B-0125)
1 mM dithiothreitol (SIGMA; Order No.: D-0632)
1 μM captopril-1-[(2S)-3-mercapto-2-methylpropionyl]-L-proline
Both buffers are adjusted to pH 6.8 with 5 molar NaOH.
Guinea pig ilea are carefully squeezed out to remove most of the intestinal contents and are cleaned in 0.9% strength NaCl solution.
The pieces of ilea about 2 cm long are transferred into ice-cold TES buffer (about 1 g/10 ml) and homogenized with an Ultraturrax in an ice bath for about 30 sec. The homogenate is then filtered through 3 layers of gauze and the filtrate is centrifuged at 50,000 g for 10 minutes.
The supernatant is discarded, and the pellet is rehomogenized in the same volume of TES buffer and again centrifuged at 50,000 g for 10 minutes. The pellet is rehomogenized in incubation buffer (about 1 g/5 ml) and frozen in 2 ml portions in cryotubes at -70° C.
The protein concentration in the finished membrane suspension is determined by the LOWRY method and should be about 15 μg/100 μl.
All the incubations are carried out in a volume of 200 μl in microtiter plates (96×300 μl) at room temperature for 60 minutes. All mixtures in incubation bufler. 50 μl of the radioligands, 50 μl of the product to be tested and 100 μl of the membrane suspension are successively pipetted into these in the wells of the microtiter plate. […]
a) Saturation experiments (hot saturation): […]
Nonspecific binding: The nonspecific binding must be determined for each concentration of the radioactive ligand. […]

[1] = tested on: bradykinin-induced contraction of the guinea pig ileum; assay: Bradykinin-antagonistic effect on the bradykinin-induced contraction of the isolated guinea pig ileum; conditions: Cavia porcellus, 10 min, Tyrode solution 37° C., antagonist action time 10 min
Excerpt: Furthermore, to determine the bradykinin-antagonistic effect of the compounds of the formula (I) it is possible to measure their effect on the bradykinin-induced contraction of the guinea pig ileum by the following protocol:
Guinea pigs weighing about 300 g (Morioth strain,--) are sacrificed by a blow to the back of the neck and are exsanguinated. A length of about 20 cm of ileum is dissected out and rinsed with Tyrode solution (Record syringe), thus removing intestinal contents. It is then divided into segments 1.5 cm long. These are fixed in organ baths with a capacity of 10 ml which are filled with Tyrode solution, and are connected to strain gauges (isometric contraction measurement). The initial load is 1 g. The Tyrode solution is heated in a water bath to 37° C., and compressed air is bubbled through.
After an interval of 30 min, the experiment is started. After recording the biological zero line, bradykinin is added to each organ bath in a final concentration of […], and the concentration is recorded. Then, after rinsing with Tyrode solution for 3 min and a resting period of 20 min, bradykinin is again added. The maximum contraction is reached (control). Rinsing and resting period repeated. The bradykinin antagonist is then added (action time 10 min.). […] The experiment is recorded on a pen recorder. […]

Row | Ki (bradykinin B2 receptor) | IC50 [1] | Compound
1 | 61 nM |  | Cc1ccc2cccc(OCc3c(Cl)ccc(OCCNC(=O)/C=C/c4ccccc4)c3Cl)c2n1 [Example 5, 8-[2,6-dichloro-3-(trans-2-N-cinnamoylaminoethoxy)benzyloxy]-2-methylquinoline]
2 |  | 1800 nM | Cc1ccc2cccc(OCc3c(Cl)ccc(OCCN)c3Cl)c2n1 [Example 1, 8-[3-(2-aminoethoxy)-2,6-dichlorobenzyloxy]-2-methylquinoline]
3 | 20 nM |  | Cc1ccc2cccc(OCc3c(Cl)ccc(OCCNC(=O)/C=C/c4ccc(N)cc4)c3Cl)c2n1 [Example 2, 8-[3-(2-N-(trans-4-aminocinnamoyl)aminoethoxy)-2,6-dichlorobenzyloxy]-2-methylquinoline]
4 | 32 nM |  | COc1ccc(/C=C/C(=O)NCCOc2ccc(Cl)c(COc3cccc4ccc(C)nc34)c2Cl)cc1 [Example 6, 8-[2,6-dichloro-3-(2-N-(trans-4-methoxycinnamoyl)aminoethoxy)benzyloxy]-2-methylquinoline]
